Data taken from PMC3240716 (Journal of medicinal chemistry, 2011).
Entries after “also recorded” stand apart in the source; their conditions may differ. Values belong to the compound of their own block, whether it stands above or below them.

Tests used:
Hα4β2 nAChRs = Hα4β2 nAChRs (Homo sapiens, UniProt P17787+P43681); experiment: Calcium accumulation assay, HEK ts201 cells stably expressing Hα4β2 nAChRs; format: cell-based; conditions: for effect / activity on Hα4β2 nAChRs: up to 100 µM
Hα3β4 nAChRs = Hα3β4 nAChRs (Homo sapiens, UniProt P30926+P32297); experiment: Calcium accumulation assay, HEK ts201 cells stably expressing Hα3β4 nAChRs; format: cell-based; conditions: for effect / activity on Hα3β4 nAChRs: up to 100 µM
Sequence of Hα3β4 nAChRs (P32297 32-505): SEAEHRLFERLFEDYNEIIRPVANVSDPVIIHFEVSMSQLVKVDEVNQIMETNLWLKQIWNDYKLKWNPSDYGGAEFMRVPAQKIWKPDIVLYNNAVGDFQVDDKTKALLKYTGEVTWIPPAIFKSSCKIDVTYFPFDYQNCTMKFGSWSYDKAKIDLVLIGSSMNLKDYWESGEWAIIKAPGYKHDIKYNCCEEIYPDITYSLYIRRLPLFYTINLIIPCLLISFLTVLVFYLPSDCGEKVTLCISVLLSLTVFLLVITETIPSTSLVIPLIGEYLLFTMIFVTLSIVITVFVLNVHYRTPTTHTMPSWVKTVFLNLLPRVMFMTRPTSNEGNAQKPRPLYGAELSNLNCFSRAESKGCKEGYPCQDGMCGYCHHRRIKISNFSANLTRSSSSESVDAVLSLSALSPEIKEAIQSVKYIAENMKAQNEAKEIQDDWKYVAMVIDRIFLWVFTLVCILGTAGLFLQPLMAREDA
Sequence of Hα3β4 nAChRs (P30926 22-498): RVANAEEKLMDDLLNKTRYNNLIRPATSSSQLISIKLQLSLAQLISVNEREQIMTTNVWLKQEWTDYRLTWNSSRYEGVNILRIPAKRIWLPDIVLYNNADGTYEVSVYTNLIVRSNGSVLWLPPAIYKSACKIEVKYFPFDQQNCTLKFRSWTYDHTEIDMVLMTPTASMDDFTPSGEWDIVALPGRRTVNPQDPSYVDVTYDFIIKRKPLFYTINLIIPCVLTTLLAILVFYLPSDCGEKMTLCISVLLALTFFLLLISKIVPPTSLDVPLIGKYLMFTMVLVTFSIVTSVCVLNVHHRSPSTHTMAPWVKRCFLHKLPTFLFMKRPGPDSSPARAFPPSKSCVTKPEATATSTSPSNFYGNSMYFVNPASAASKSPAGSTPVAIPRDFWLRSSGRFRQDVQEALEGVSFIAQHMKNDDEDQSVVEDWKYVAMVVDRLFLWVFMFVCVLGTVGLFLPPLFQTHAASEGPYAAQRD

[1] = 30 µM compound, competitive vs non-competitive test, n=4
[2] = approximate, concentration used in Figure 1

Sequence of Hα4β2 nAChRs (P43681 29-627 limits assumed): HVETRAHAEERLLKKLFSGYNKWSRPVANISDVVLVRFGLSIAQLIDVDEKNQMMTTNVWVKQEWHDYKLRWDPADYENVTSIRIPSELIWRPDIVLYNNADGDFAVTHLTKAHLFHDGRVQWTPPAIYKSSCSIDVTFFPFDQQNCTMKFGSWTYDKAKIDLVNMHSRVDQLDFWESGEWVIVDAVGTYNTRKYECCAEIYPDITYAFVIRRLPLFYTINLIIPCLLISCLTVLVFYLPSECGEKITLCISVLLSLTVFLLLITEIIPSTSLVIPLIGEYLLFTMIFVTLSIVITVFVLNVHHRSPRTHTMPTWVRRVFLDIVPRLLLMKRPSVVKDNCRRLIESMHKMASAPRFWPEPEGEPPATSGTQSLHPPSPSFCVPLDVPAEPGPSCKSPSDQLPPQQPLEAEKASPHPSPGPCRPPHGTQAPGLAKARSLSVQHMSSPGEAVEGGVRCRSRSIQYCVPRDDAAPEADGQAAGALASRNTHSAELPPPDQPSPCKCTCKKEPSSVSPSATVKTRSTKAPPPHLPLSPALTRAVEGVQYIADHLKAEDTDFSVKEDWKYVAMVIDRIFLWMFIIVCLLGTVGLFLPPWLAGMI
Sequence of Hα4β2 nAChRs (P17787 26-502): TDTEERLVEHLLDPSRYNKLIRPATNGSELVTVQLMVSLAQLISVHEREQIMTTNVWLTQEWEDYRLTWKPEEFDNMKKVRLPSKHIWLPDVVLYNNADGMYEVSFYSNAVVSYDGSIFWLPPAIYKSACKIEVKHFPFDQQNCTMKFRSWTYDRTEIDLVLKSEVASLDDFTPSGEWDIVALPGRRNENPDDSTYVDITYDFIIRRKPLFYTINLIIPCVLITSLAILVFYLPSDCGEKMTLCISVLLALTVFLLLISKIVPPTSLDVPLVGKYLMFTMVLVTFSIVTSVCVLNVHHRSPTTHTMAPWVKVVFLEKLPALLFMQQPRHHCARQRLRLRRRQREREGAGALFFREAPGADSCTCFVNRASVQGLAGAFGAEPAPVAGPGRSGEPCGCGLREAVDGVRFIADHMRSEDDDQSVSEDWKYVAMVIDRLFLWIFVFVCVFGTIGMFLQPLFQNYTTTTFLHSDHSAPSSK

Structure (SMILES): O=C(CN1CCN(S(=O)(=O)c2ccc(F)cc2)CC1)Nc1ccccc1F [Compound 1, N-(2-fluorophenyl)-2-(4-((4-fluorophenyl)sulfonyl)piperazin-1-yl)acetamide]
- effect on epibatidine concentration-response, Hα4β2 nAChRs (Hα4β2 nAChRs; [1]): reduced the maximum efficacy
- IC70, Hα4β2 nAChRs (Hα4β2 nAChRs; [2]): ~30 µM
- effect on epibatidine concentration-response, Hα3β4 nAChRs (Hα3β4 nAChRs; [1]): reduced the maximum efficacy
- IC70, Hα3β4 nAChRs (Hα3β4 nAChRs; [2]): ~30 µM

Structure (SMILES): O=S(=O)(c1ccc(F)cc1)N1CCNCC1 [Compound 3, 1-([4-fluorophenyl]sulfonyl)piperazine]
- effect / activity on Hα4β2 nAChRs (Hα4β2 nAChRs): no effect
- effect / activity on Hα3β4 nAChRs (Hα3β4 nAChRs): no effect

Structure (SMILES): O=C(CN1CCN(S(=O)(=O)c2ccccc2F)CC1)Nc1ccccc1F [Compound 16, N-(2-fluorophenyl)-2-(4-((2-fluorophenyl)sulfonyl)-piperazin-1-yl)acetamide]
- change in potency for Hα4β2 nAChRs (Hα4β2 nAChRs; compared to lead compound 1): no significant change

Structure (SMILES): O=C(CN1CCN(S(=O)(=O)c2ccc(F)cc2)CC1)Nc1ccccc1 [Compound 15, 2-(4-((4-fluorophenyl)sulfonyl)piperazin-1-yl)-N-phenylacetamide]
- change in potency for Hα4β2 nAChRs (Hα4β2 nAChRs; compared to lead compound 1): no significant change
- fold decrease in potency for Hα3β4 nAChRs (Hα3β4 nAChRs; compared to lead compound 1): 2 fold

Structure (SMILES): O=C(CN1CCN(S(=O)(=O)c2ccc(F)cc2)CC1)Nc1ccc2[nH]ncc2c1 [Compound 11, 2-(4-((4-fluorophenyl)sulfonyl)piperazin-1-yl)-N-(1H-indazol-5-yl)acetamide]
- change in potency for Hα4β2 nAChRs (Hα4β2 nAChRs; compared to lead compound 1): slight increase
- fold decrease in potency for Hα3β4 nAChRs (Hα3β4 nAChRs; compared to lead compound 1): 3 fold

Structure (SMILES): COc1ccc(NC(=O)CN2CCN(S(=O)(=O)c3ccc(F)cc3)CC2)cc1 [Compound 13, 2-(4-((4-fluorophenyl)sulfonyl)piperazin-1-yl)-N-(4-methoxyphenyl)acetamide]
- fold decrease in potency for Hα4β2 nAChRs (Hα4β2 nAChRs; compared to lead compound 1): 2 fold
- fold decrease in potency for Hα3β4 nAChRs (Hα3β4 nAChRs; compared to lead compound 1): 3 fold

Structure (SMILES): O=C(CN1CCN(S(=O)(=O)c2ccc(F)cc2)CC1)Nc1cc[nH]n1 [Compound 12, 2-(4-((4-fluorophenyl)sulfonyl)piperazin-1-yl)-N-(1H-pyrazol-3-yl)acetamide]
- change in potency for Hα4β2 nAChRs (Hα4β2 nAChRs; compared to lead compound 1): significant decrease
- effect / activity on Hα4β2 nAChRs (Hα4β2 nAChRs): abolished activity; also recorded: loss of activity
- change in potency for Hα3β4 nAChRs (Hα3β4 nAChRs; compared to lead compound 1): significant decrease
- effect / activity on Hα3β4 nAChRs (Hα3β4 nAChRs): abolished activity; also recorded: loss of activity

Structure (SMILES): O=C(CN1CCN(S(=O)(=O)c2ccc(F)cc2)CC1)Nc1ccc(F)cc1 [Compound 14, N-(4-fluorophenyl)-2-(4-((4-fluorophenyl)sulfonyl)-piperazin-1-yl)acetamide]
- change in potency for Hα4β2 nAChRs (Hα4β2 nAChRs; compared to lead compound 1): no significant change
- change in potency for Hα3β4 nAChRs (Hα3β4 nAChRs; compared to lead compound 1): no significant change

Now from value to compound:

- change in potency for Hα4β2 nAChRs (Hα4β2 nAChRs; compared to analog 16): no change
- fold increase in potency for Hα3β4 nAChRs (Hα3β4 nAChRs; compared to analog 16): 6 fold
Structure (SMILES): O=C(CN1CCN(S(=O)(=O)c2ccccc2F)CC1)Nc1ccc(F)cc1 [Compound 20, N-(4-fluorophenyl)-2-(4-((2-fluorophenyl)sulfonyl)-piperazin-1-yl)acetamide]

- change in potency for Hα4β2 nAChRs (Hα4β2 nAChRs; compared to lead compound 1): significant decrease
- change in potency for Hα3β4 nAChRs (Hα3β4 nAChRs; compared to lead compound 1): significant decrease
Structure (SMILES): COc1ccc(NC(=O)CN2CCN(S(=O)(=O)c3cccnc3)CC2)cc1 [Compound 26, N-(4-methoxyphenyl)-2-(4-(pyridin-3-ylsulfonyl)-piperazin-1-yl)acetamide]

- effect / activity on Hα4β2 nAChRs (Hα4β2 nAChRs): loss of activity
- effect / activity on Hα3β4 nAChRs (Hα3β4 nAChRs): loss of activity
Structure (SMILES): O=C(CN1CCN(S(=O)(=O)c2ccccc2F)CC1)Nc1ccc(C(=O)O)cc1 [Compound 23, 4-(2-(4-((2-fluorophenyl)sulfonyl)piperazin-1-yl)acetamido)benzoic acid]

- fold decrease in potency for Hα4β2 nAChRs (Hα4β2 nAChRs; compared to analog 16): 2 fold
- fold increase in potency for Hα3β4 nAChRs (Hα3β4 nAChRs; compared to analog 16): 4 fold
Structure (SMILES): COc1ccc(NC(=O)CN2CCN(S(=O)(=O)c3ccccc3F)CC2)cc1 [Compound 21, 2-(4-((2-fluorophenyl)sulfonyl)piperazin-1-yl)-N-(4-methoxyphenyl)acetamide]

- change in potency for Hα4β2 nAChRs (Hα4β2 nAChRs; compared to analog 16): no significant change
- fold increase in potency for Hα3β4 nAChRs (Hα3β4 nAChRs; compared to analog 16): 8 fold
Structure (SMILES): COC(=O)c1ccc(NC(=O)CN2CCN(S(=O)(=O)c3ccccc3F)CC2)cc1 [Compound 22, methyl 4-(2-(4-((2-fluorophenyl)sulfonyl)piperazin-1-yl)acetamido)benzoate]

- fold decrease in potency for Hα4β2 nAChRs (Hα4β2 nAChRs; compared to lead compound 1): 2 fold
- fold decrease in potency for Hα3β4 nAChRs (Hα3β4 nAChRs; compared to lead compound 1): 2 fold
Structure (SMILES): COc1ccc(S(=O)(=O)N2CCN(CC(=O)Nc3ccc(F)cc3)CC2)cc1 [Compound 28, N-(4-fluorophenyl)-2-(4-((4-methoxyphenyl)sulfonyl)-piperazin-1-yl)acetamide]

- change in potency for Hα4β2 nAChRs (Hα4β2 nAChRs; compared to lead compound 1): no significant change
- change in potency for Hα3β4 nAChRs (Hα3β4 nAChRs; compared to lead compound 1): no significant change
Structure (SMILES): COc1ccc(S(=O)(=O)N2CCN(CC(=O)Nc3ccccc3F)CC2)cc1 [Compound 19, N-(2-fluorophenyl)-2-(4-((4-methoxyphenyl)sulfonyl)-piperazin-1-yl)acetamide]

- fold increase in potency for Hα4β2 nAChRs (Hα4β2 nAChRs; compared to lead compound 1): 2 fold
- fold increase in potency for Hα3β4 nAChRs (Hα3β4 nAChRs; compared to lead compound 1): 2 fold
Structure (SMILES): O=C(CN1CCN(S(=O)(=O)c2ccccc2)CC1)Nc1ccccc1F [Compound 18, N-(2-fluorophenyl)-2-(4-(phenylsulfonyl)piperazin-1-yl)acetamide]

- effect / activity on Hα4β2 nAChRs (Hα4β2 nAChRs): loss of activity
- effect / activity on Hα3β4 nAChRs (Hα3β4 nAChRs): loss of activity
Structure (SMILES): O=C(CN1CCN(S(=O)(=O)c2ccccc2F)CC1)Nc1cc[nH]n1 [Compound 24, 2-(4-((2-fluorophenyl)sulfonyl)piperazin-1-yl)-N-(1H-pyrazol-3-yl)acetamide]

- fold decrease in potency for Hα4β2 nAChRs (Hα4β2 nAChRs; compared to lead compound 1): 2 fold
- fold decrease in potency for Hα3β4 nAChRs (Hα3β4 nAChRs; compared to lead compound 1): 5 fold
Structure (SMILES): O=C(CN1CCN(S(=O)(=O)c2cccnc2)CC1)Nc1ccccc1F [Compound 17, N-(2-fluorophenyl)-2-(4-(pyridin-3-ylsulfonyl)piperazin-1-yl)acetamide]
